From patent US20140296143A1, “Angiotensin-(1-7) As A Chemoprevention Agent” (Wake Forest Innovations, priority 2008, published 2014)
Square brackets hold non-standard residues; d marks the D form. Ends that are not written are not given here.

Tests used:
[1] = tested on: SK-LU-1 lung cancer cells; assay type: cell-based, human; details: for effect on serum-stimulated ^3H-thymidine incorporation: SK-LU-1, peptide at 1 or 100 nM; for effect of antagonist on inhibition of serum-stimulated growth by Ang-(1-7): SK-LU-1, antagonist pretreatment (1 μM)
Procedure: Cells were grown to subconfluence in either 24-well cluster plates or 100 mm dishes and made quiescent by treatment for 48 h with serum-depleted growth media, prior to the experiments outlined below to measure cell growth (^3H-thymidine incorporation), cell signaling or apoptosis.
Subsequently, the cell monolayer was washed with cold phosphate-buffered saline (PBS; 50 mM NaPO4, 120 mM NaCl, pH=7.2). The adherent cells were precipitated with cold 10% TCA (4° C. for 30 min) and dissolved in 0.2% SDS in 0.1 N NaOH.
During an additional 4 h, cell monolayers were pulsed with ^3H-thymidine (0.25 μCi/well) and harvested.

VSMCs = details: pretreatment; U.S. Pat. No. 7,375,073; cited from earlier work
AT2 angiotensin receptor = molecular target: T1, AT2 angiotensin receptor (Homo sapiens, UniProt P50052); details: literature; cited from earlier work
T1 sequence (P50052 1-363): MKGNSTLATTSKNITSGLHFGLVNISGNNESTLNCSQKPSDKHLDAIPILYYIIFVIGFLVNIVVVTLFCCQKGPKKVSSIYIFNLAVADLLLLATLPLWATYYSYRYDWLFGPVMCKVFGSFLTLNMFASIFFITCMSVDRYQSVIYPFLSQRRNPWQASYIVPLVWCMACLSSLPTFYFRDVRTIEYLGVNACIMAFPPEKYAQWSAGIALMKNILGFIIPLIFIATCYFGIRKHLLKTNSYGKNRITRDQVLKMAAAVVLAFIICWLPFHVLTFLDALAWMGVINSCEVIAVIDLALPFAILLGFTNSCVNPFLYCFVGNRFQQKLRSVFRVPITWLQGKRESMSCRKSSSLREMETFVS

AT1 angiotensin receptor = details: literature; cited from earlier work
EA.hy.926 cells = test: Tube formation of endothelial cells in Matrigel; assay type: cell-based, human; details: selective Ang-(1-7) receptor antagonist
Procedure: These cells are a transformed human endothelial cell line derived from umbilical vein endothelial cells. They retain their endothelial phenotype and were previously used to study angiogenesis.
After a 16 h incubation period to allow tube formation, cultures were photographed and branch points were counted, to quantify tube formation.

AT1 angiotensin receptor, sequence (P30556 whole entry): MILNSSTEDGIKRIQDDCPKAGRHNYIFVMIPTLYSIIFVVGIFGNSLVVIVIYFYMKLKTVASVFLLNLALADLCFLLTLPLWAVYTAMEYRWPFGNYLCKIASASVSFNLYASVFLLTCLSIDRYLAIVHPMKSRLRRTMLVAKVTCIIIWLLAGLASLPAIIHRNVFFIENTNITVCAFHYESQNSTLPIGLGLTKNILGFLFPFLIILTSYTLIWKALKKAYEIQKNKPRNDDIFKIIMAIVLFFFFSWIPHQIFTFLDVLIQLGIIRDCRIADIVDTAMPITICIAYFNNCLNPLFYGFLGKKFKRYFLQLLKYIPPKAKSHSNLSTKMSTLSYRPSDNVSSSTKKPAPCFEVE

| Molecule | effect on serum-stimulated ^3H-thymidine incorporation [1] | effect of antagonist on inhibition of serum-stimulated growth by Ang-(1-7) [1] | other results |
| --- | --- | --- | --- |
| Asp-Arg-Val-Tyr-Ile-His-Pro-Phe [Ang II] | ineffective | – | – |
| Val-Tyr-Ile-His-Pro-Phe (VYIHPF; listed as Homo sapiens) [Ang-(3-8)] | ineffective | – | – |
| CCN(CC)CC.Nc1ncnc2c1ncn2[C@@H]1O[C@@H]2COP(O)(=S)O[C@H]2[C@H]1O (stereo partly drawn) [Rp-cAMPS, Rp-adenosine-3′,5′-cyclic monphospho-phorothioate triethylamine salt] | – | – | effect on the reduction in serum-stimulated ^3H-thymidine incorporation by Ang-(1-7) or carbacyclin (VSMCs): completely blocked |
| [D-Ala^7]-Ang-(1-7): a modified form of Ang-(1-7), selective Ang-(1-7) antagonist (DRVYIH[dA]) [reference compound] | – | blocked | competition at the AT2 receptor (AT2 angiotensin receptor): poor competitor; competition at the AT1 receptor (AT1 angiotensin receptor): poor competitor |
| [D-Pro^7]-Ang-(1-7): a selective Ang-(1-7) receptor antagonist [reference compound] | – | – | effect on Ang-(1-7)-mediated reduction in tube formation (EA.hy.926 cells): prevented |
| CCCCc1nc(Cl)c(CO)n1Cc1ccc(-c2ccccc2-c2nn[nH]n2)cc1 [Losartan] | – | neither AT1 nor AT2 angiotensin receptor antagonists Losartan and PD123177, respectively, were effective | – |
| Arg-Val-Tyr-Ile-His-Pro-Phe (RVYIHPF; listed as Homo sapiens) [Ang-(2-8)] | ineffective | – | – |
| Val-Tyr-Ile-His-Pro (VYIHP; listed as Homo sapiens) [Ang-(3-7)] | ineffective | – | – |
| Cc1cc(Cn2cnc3c2CC(C(=O)O)N(C(=O)C(c2ccccc2)c2ccccc2)C3)ccc1N (stereo not drawn) [PD123177] | – | neither AT1 nor AT2 angiotensin receptor antagonists Losartan and PD123177, respectively, were effective | – |
| DRVYIHPFHL [Ang I] | ineffective | – | – |
